Reference: patent US4689318A, “GRF analogs” (The Salk Institute for Biological Studies, priority 1985, dated 1987)
No end group written: not given here.

Test system: cells of rat pituitary glands
Assay: in vitro GH release from cultured rat pituitary cells, side-by-side with synthetic hGRF(1-40)-OH standard, ir GH by radioimmunoassay
Assay type: cell-based
Conditions: equimolar concentrations; rat pituitary cell cultures; 4 hours incubation; immunoreactive GH in culture medium
Protocol: As an example of testing the effectiveness of the synthetic peptide of Example I to promote the release of growth hormone, in vitro assays are carried out using synthetic hGRF(1-40)-OH as a standard in side-by-side comparison with equimolar concentrations of the various other analogs and fragments synthesized. Cultures are used which include cells of rat pituitary glands removed four days previous to testing. Cultures which are considered optimal for the secretion of growth hormone are used for the comparative testing, in the general manner described in Vale et al. Endocrinology, 91, 562-572 (1972) and as more particularly described in Vale et al., Endocrinology, 112, 1553-1555 (1983). Incubation with the substance to be tested is carried out for 4 hours, and aliquots of the culture medium are removed and processed to measure their respective content of immunoreactive GH(ir GH) by a well-characterized radioimmunoassay.

Substance	potency to promote the release of growth hormone relative to the hpGRF(1-40)-OH standard
YADAIFSSAYRRLLAQLASRRLLQELLAR [Example II, [Ser^7,8,19, Ala^9,15,18,28, Arg^12,21, Leu^13,26,27]-hGRF(1-29)-OH]	equivalent to the hpGRF(1-40)-OH standard
YADAIFSSAYRRLLAQLASRRLLQELLAR-NH2 [Example I, [Ser^7,8,19, Ala^9,15,18,28, Arg^12,21, Leu^13,26,27]-hGRF(1-29)-NH2]	equivalent to the hpGRF(1-40)-OH standard
